Data taken from patent publication US5521216A, “Chromone derivative, and aldose reductase inhibitor comprising said compound as active ingredient” (Tsumura & Co., priority 1992, dated 1996).

Assays:
Aldose reductase [1] = target: T1, Aldose reductase (Rattus norvegicus, UniProt P07943); assay: Aldose reductase activity measurement (in vivo), sorbitol in sciatic nerves of STZ diabetic rats; parameters: species or system Wistar male rats; conditions: sciatic nerve sorbitol, oral for 2 weeks, 100 mg/kg (other compounds stated at 30 mg/kg)
T1 construct: The crystalline lenses were homogenized in 135 mM sodium-potassium-phosphate buffer; from tissue; host or cells: crystalline lens of 6 week-old male Wistar rats (30,000 rpm supernatant)
Method: <Aldose reductase activity measurement (in vivo)>
A solution of streptozotocin (STZ) in 10 mM citrate buffer (pH 4.5) was administered intravenously to the tails of 6 week-old Wistar male rats in a dosage of 65 mg/kg. 48 hours thereafter, blood was collected from the carotid arteries of the rats. Rats with a blood sugar level of higher than 200 mg/dl were classified as diabetic rats, among which rats with a persistent high level of blood sugar were employed in the experiment. The blood sugar level was determined by the glucose oxidase method. […]
After 2-week administration, the sciatic nerves were removed from the rat under ether anesthesia, then weighed, and stored at -20° C.
The content of sorbitol in the sciatic nerves was determined as follows.
The sciatic nerves were extracted at 100° C. for 20 min. with 1 ml purified water containing 10 μg/ml arabinitol, and then 0.2 ml of 0.2M barium hydroxide and 0.2 ml of 0.19M zinc sulfate were added thereto. The sample was centrifuged (3000 rpm, 30 min.) and the supernatant was evaporated to dryness. The residue thus obtained was trimethysilylated and was then analyzed by gas chromatography.
Sorbitol is an intermediate which occurs upon the conversion of glucose into fructose by aldose reductase and is accumulated together with fructose in the crystalline lenses and sciatic nerves particularly under a high level of blood sugar. […]

Aldose reductase [2] = target: T1, Aldose reductase; assay: Aldose reductase activity measurement (in vitro), rat crystalline lens enzyme, NADP fluorescence; format: biochemical, Wistar male rats; conditions: 20 mM glucose substrate, 30 min, 30° C., pH 7.0, read-out: 50% inhibition concentration [IC50 (M)]
Method: <Aldose reductase activity measurement (in vitro)>
6 week-old Wistar male rats were sacrificed under ether anesthesia and immediately the crystalline lenses were scissored and stored at -20° C.
The crystalline lenses were homogenized in 135 mM sodium-potassium-phosphate buffer, pH 7.0, and centrifuged for 30 min. at 30,000 rpm. The supernatant was used as an aldose-reductase solution. All the above procedures were carried out at 4° C. and the enzyme solution was stored at -20° C.
Aldose reductase activity was determined according to the method as described by Dufrane et al. (Biochemical Medicine, 32, 99-105 (1984)), as follows.
100 μl of the above enzyme solution and 100 μl of a sample solution prepared by dissolving a compound obtained in the following examples to a final concentration of from 1.0×10^-5 to 4.0×10^-7 M in dimethylsulfoxide (DMSO) were added to 800 μl of 135 mM sodium-potassium-phosphate buffer, pH 7.0, containing 100 mM lithium sulfate, 0.03 mM NADPH (reduced nicotinamide adenine dinucleotide phosphate), and 20 mM glucose as a substrate. The sample was allowed to react for 30 min. at 30° C. Then the reaction was stopped by addition of 0.3 ml of 0.5N hydrochloric acid. By adding 1 ml of 6N sodium hydroxide containing 10 mM imidazole, the NADP (oxidized nicotinamide adenine dinucleotide phosphate) formed in the above reaction was converted into a fluorescent substance, and 30 min. thereafter, the sample was measured for fluorescence intensity at the fluorescence wavelength of 460 nm (excitation wavelength: 360 nm) using fluorescence photometer F-4000 (manufactured by Hitachi, Ltd.) at room temperature. A sample containing DMSO in place of the present compound was used as a control group, and its fluorescence intensity was determined in the same manner as described above.
Aldose reductase is an enzyme that converts DL-glyceraldehyde or glucose into polyol in the presence of […] as a coenzyme, and as the reaction proceeds, NADPH is converted into NADP.

Row | SMILES | Repression (%) (Aldose reductase [1]) | IC50 (Aldose reductase [2]) [M]
1 | COc1c(O)cc2oc(Oc3ccc(O)cc3)cc(=O)c2c1O [Capillarisin] | 18.9 | 
2 | CC(C)Oc1cc(OC(C)C)c2c(=O)cc(Sc3ccc(O)cc3)oc2c1 [Example 1, 2-(4-hydroxyphenylthio)-5,7-di-isopropoxychromone] |  | 1.8e-08
3 | O=c1cc(Sc2ccc(O)cc2)oc2cc(O)cc(O)c12 [Example 4, 5,7-dihydroxy-2-(4-hydroxyphenylthio)chromone] |  | 3.2e-07
4 | CC(C)Oc1cc(O)c2c(=O)cc(Sc3ccc(O)cc3)oc2c1 [Example 5, 5-hydroxy-2-(4-hydroxyphenylthio)-7-isopropoxychromone] |  | 2.3e-07
5 | COc1cc(OC(C)C)cc2oc(Sc3ccc(O)cc3)cc(=O)c12 [Example 6, 2-(4-hydroxyphenylthio)-7-isopropoxy-5-methoxychromone] |  | 8e-08
